Here are results for six molecules from patent publication US10428014B2, “Base generator, base-reactive composition containing said base generator, and base generation method” (FUJIFILM Wako Pure Chemical Corporation, priority 2013, dated 2019).

The nature of series [1]: Heat resistance test (TG-DTA, initiation temperature of 5% weight decrease). It is filed as physicochemical. The following applies: 10 mg, 30° C. to 500° C., 10° C./min.
Series [2] can be described thus: Exposure curing test using bisphenol A-type diglycidyl ether. The settings on record: 10 mg compound, 100 mg jER 828, 50 mg KarenzMT PE1.

The molecule “1,2-dicyclohexyl-4,4,5,5-tetramethylbiguanidium 2-(9-oxoxanthene-2-yl)propionate [formula (4)]” yielded a Decomposition initiation temperature in series [1] of 199 °C.
With “1,2-dicyclohexyl-4,4,5,5-tetramethylbiguanidium 8(7H)-ethylidene-4-methoxy-5,6-dihydronaphthalene-1-carboxylate [formula (6)]”, the Decomposition initiation temperature in series [1] worked out at 205 °C.
Same read-out and setting: next, “1,2-diisopropyl-4,4,5,5-tetramethylbiguanidium 2-(9-oxoxanthene-2-yl)propionate [formula (7)]”: 200 °C.
On the same count and under the same terms, next, “1,2-diisopropyl-4,4,5,5-tetramethylbiguanidium 8(7H)-ethylidene-4-methoxy-5,6-dihydronaphthalene-1-carboxylate [formula (5)]”: 204 °C.
Same read-out and setting: next, “1,2-diisopropyl-4,4,5,5-tetramethylbiguanidium N-phthaloylglycine [formula (8)]”: 206 °C.
For the molecule `CC(C(=O)O)c1cccc(C(=O)c2ccccc2)c1` (stereo not shown) [formula (101), guanidium 2-(3-benzoylphenyl)propionate, reference compound], the Decomposition initiation temperature in series [1] was determined as 161 °C. The “Dissolution into the mixed solution of the bisphenol A-type diglycidyl ether oligomer and pentaerythritol tetrakis(3-mercaptobutyrate)” value in series [2] was “did not dissolve”.
